Data published in patent US20230100941A1, “MOLECULES TARGETING MUTANT RAS PROTEIN” (AELIN THERAPEUTICS, priority 2020, published 2023).
Blank lines part the entries; values can stand above or below the molecule they belong to. Ends that are not written are not given here.

Key:
G12V mutant KRAS = target: T1, G12V mutant KRAS (Homo sapiens, UniProt P01116, G12V); experiment: In vitro translation assay with streptavidin pull-down of biotinylated pept-ins, Western blot for KRAS; assay type: binding; settings: 10 μM biotinylated pept-in
T1 construct: made in house; host or cells: cell-free: PURExpress In Vitro Protein Synthesis Kit (New England Biolabs), linear T7 PCR template
Procedure: (§1) In vitro translation assays were performed using the PURExpress® In Vitro Protein Synthesis Kit (New England Biolabs) according to the manufacturer's instructions. Briefly, linear DNA fragments containing T7 promotor and terminator sequences flanking the KRAS coding sequence were generated using PCR and purified using the MinElute PCR Purification Kit (Qiagen). 250 ng of linear DNA was subsequently used for the in vitro translation reaction, which was performed for 2 hours at 37° C. with shaking (1000 rpm). Indicated biotinylated pept-ins were mixed in the translation reactions from a 5 mM stock solution in 6M Urea to a final concentration of 10 μM. Upon completion of the translation reaction, biotinylated pept-ins were captured from the reaction mix using Streptavidin coated beads (Pierce) during 90 min at room temperature. Beads were next washed with TBS containing 0.1% Tween 20 and bound proteins were finally boiled off in 1×SDS loading dye (Bio-Rad) in TBS buffer. Proteins were resolved using Any kD 15-well Mini-PROTEAN gels (Bio-Rad) during SDS-PAGE and probed for KRAS after Western blotting using a mouse monoclonal KRAS-specific antibody (SC-30, Santa Cruz Biotechnology), which was detected with an HRP-coupled anti-mouse secondary antibody using chemiluminescence on a Bio-Rad Chemidoc MP imaging instrument.
(§2) To mimic this in vitro, we devised an in vitro translation setup producing either wild-type or mutant (G12V, G12C, G12D or G13D) KRAS in the presence of biotinylated RAS-targeting pept-ins. This allowed us to perform a streptavidin pull-down to capture the biotinylated pept-ins from the translation reaction and perform SDS-PAGE and Western blotting to probe the pulled-down fraction for the presence of KRAS. The biotinylated version of pept-in 04-004-N001, i.e. 04-004-N011, which harbours an APR window sequence derived from a wild-type APR, is predicted to target all RAS proteins independently from their mutation status.

G12C mutant KRAS = target: T2, G12C mutant KRAS (Homo sapiens, UniProt P01116, G12C); experiment: as above; assay type: binding; settings: 10 μM biotinylated pept-in
T2 construct: made in house; host or cells: cell-free: PURExpress In Vitro Protein Synthesis Kit (New England Biolabs), linear T7 PCR template
Procedure: as §1, §2

[1] = Single-dose viability screen on adherently growing (2D) NCI-H441 cells (CellTiter Blue); assay type: cell-based, human; settings: 25 μM single dose, adherent NCI-H441, compared to vehicle (30 mM Urea); read-out: decrease in viability after 4 days of exposure
Procedure: For the single-dose viability screen on adherent cells, 4000 cells were seeded per well in black μclear® Cellstar® F-bottom 96-well plates (Greiner) in 100 μL full growth medium. The day after seeding, growth medium was replaced with full growth medium containing the indicated pept-in at a fixed final dose of 25 μM. Technical duplicates were included for all experimental pept-in conditions. 2 and 4 days after treatment viability was assessed using the CellTiter Blue reagent (Promega) according to the manufacturer's instructions, with the following adaptation: CellTiter Blue reagent was diluted 1 in 2 in PBS. Readout was performed on a Clariostar plate reader (BMG). Dose-response assays were performed with the following adaptations: pept-ins were tested in dose-response using a 1 in 2 dilution series with 50 μM being the highest final concentration used. Furthermore, a single viability read-out was performed 3 days after treatment using the Celltiter Glo reagent (Promega) according to the manufacturer's instructions, with the following adaptation: CellTiter Glo reagent was diluted 1 in 4 in PBS.
To assess pept-in activity on the viability of RAS-mutant tumor cells, we used adherent NCI-H441 lung adenocarcinoma cells which harbor a G12V mutation in KRAS. To verify that this cell line was indeed dependent on KRAS for its growth, we used SAH-SOS-1A as a positive control. SAH-SOS-1A is a peptidic compound whose design is based on a stabilized helix from son of sevenless 1, the canonical guanine exchange factor for KRAS (Leshchiner et al. Proc Natl Acad Sci U S A. 2015, vol. 112(6), 1761-6).
Pept-ins were screened at a single dose of 25 μM (corresponds to final concentration of 30 mM Urea) and viability was measured after 2 and 4 days of exposure using the CellTiter Blue reagent. […] Hit rates and potencies for the other templates tested were considerably lower. […] One of these pept-ins (04-004-N001) harbours an APR window sequence derived from another APR of RAS, that is thus present in both G12 mutant and wild-type RAS, while the other four pept-ins (04-006-N001, 04-014-N001, 04-015-N001 and 04-033-N001) harbour an APR window sequence that is derived from and contains a G12V mutant site.

SW620 tumor = experiment: In vivo SW620 xenograft model of human KRAS G12V colorectal cancer; set-up: species or system mouse; settings: for average tumor volume at day 22, 20 μg dosing group / average tumor volume at day 22, 200 μg dosing group: intratumoral injection three times per week
Procedure: Female NCr nu/nu mice (8 to 12 weeks) were inoculated with 1×10^6 SW620 tumor cells in 50% Matrigel subcutaneously in the hind flank. The cell Injection Volume was 0.1 mL/mouse. When tumors reached an average size of 100-150 mm^3 a pair match was performed, and treatment started. Group sizes were N=6 for the non-treated group, N=5 for the vehicle groups and N=8 for the pept-in and positive control groups. Tumor growth was monitored by caliper measurement twice per week. Model response was monitored by Irinotecan dosed once per week at 100 mg/kg intraperitoneally for 3 weeks.
To assess whether the RAS-targeting pept-ins are able to attenuate growth of KRAS G12V-driven tumors in vivo, a subcutaneous xenograft model of human KRAS G12V colorectal cancer (SW620) was used. Once the tumors reached 100-150mm^3 in size, pept-ins were administered directly into the tumor mass by intratumoral injection three times per week during two weeks at two different doses (20 μg and 200μg).

[2] = system: RASless MEFs expressing KRAS G12V; experiment: Spheroid efficacy on RASless MEF panel; assay type: cell-based, mouse; settings: spheroids, 5 days of exposure
Procedure: (§3) For the single-dose viability screen on spheroid cultures, 1000 cells were seeded per well in black Ultra-Low Attachment (ULA) round-bottom 96-well plates (Corning) in 75 μL full growth medium. The day after seeding, spheroids were treated by addition of 50 µl of full growth medium containing the indicated test compounds so that the final concentration after adding was 25 μM. Technical duplicates were included for all experimental pept-in conditions 5 days after treatment viability was assessed using the CellTiter Glo 3D reagent (Promega) according to the manufacturer's instructions, with the following adaptation: 80 μL of reagent was added per well. Readout was performed on a Clariostar plate reader (BMG). For dose-response assays using RASless MEFs, cells were seeded at 1000 (G12V and G12C) or 2000 (wild-type and BRAF V600E) in Matrigel-containing medium, in order to obtain equally viable spheroids at start of treatment, 24 hrs later. […]
RAS mutant-selectivity on cellular efficacy was assessed using the isogenic RASless mouse embryonic fibroblast (MEF) panel. […] The panel assessed included the common clinical KRAS variants expressed as transgene (WT, G12V and G12C) and an additional cell line dependent on the expression of BRAF V600E for proliferation.
Efficacy of RAS-targeting pept-ins on MEFs growing as spheroids was assessed after 5 days of exposure. […]

[3] = system: NCI-H441 cells growing as suspension spheroid cultures; experiment: Single-dose viability screen on NCI-H441 suspension spheroid cultures (3D, CellTiter Glo 3D); assay type: cell-based, human; settings: 25 μM single dose, 5 days
Procedure: as §3, with “(BMG).” for “(BMG). For dose-response assays using RASless MEFs, cells were seeded at 1000 (G12V and G12C) or 2000 (wild-type and BRAF V600E) in Matrigel-containing medium, in order to obtain equally viable spheroids at start of treatment, 24 hrs later.”
As previous reports have shown that adherent growth of KRAS mutant cells lines might attenuate their sensitivity to KRAS inhibition or knockdown (Fujita-Sato et al. Cancer Res. 2015, vol. 75, 2851-62; Patricelli et al. Cancer Discov. 2016, vol. 6, 316-29; Vartanian et al. J Biol Chem. 2013, vol. 288, 2403-13), we complemented the screen on adherently growing NCI-H441 cells with a screen on suspension spheroid cultures of the same cell line. […] Viability of the spheroid cultures was determined after 5 days of exposure using the CellTiter Glo 3D reagent from Promega. […]

Molecule: 04-006-N007: biotinylated version of a biologically active pept-in harbouring an APR window containing the G12V mutant site (KVVVGAVKGSKVVVGAVK; also: biotinylated, site not given here)
pull-down of G12V mutant KRAS (G12V mutant KRAS): notable pull-down was only observed for the G12V mutant KRAS

pull-down of G12V mutant KRAS (G12V mutant KRAS): notable pull-down | pull-down of G12C mutant KRAS (G12C mutant KRAS): notable pull-down
Molecule: 04-015-N026: biotinylated version of a biologically active pept-in harbouring an APR window containing the G12V mutant site (KVVVGAVGKGSKVVVGAVGK; also: biotinylated, site not given here)

Molecule: 04-033-N003: biotinylated version of a biologically active pept-in harbouring an APR window containing the G12V mutant site (KVVVGAVGVGKGSKVVVGAVGVGK; also: biotinylated, site not given here)
pull-down of G12V mutant KRAS (G12V mutant KRAS): notable pull-down was only observed for the G12V mutant KRAS

Molecule: CC(=O)N[C@@H](CCCCN)C(=O)N[C@H](C(=O)N[C@H](C(=O)N[C@H](C(=O)NCC(=O)N[C@@H](C)C(=O)N[C@H](C(=O)NCC(=O)N[C@@H](CCCCN)C(=O)NCC(=O)N[C@@H](CO)C(=O)N[C@@H](CCCCN)C(=O)N[C@H](C(=O)N[C@H](C(=O)N[C@H](C(=O)NCC(=O)N[C@@H](C)C(=O)N[C@H](C(=O)NCC(=O)N[C@@H](CCCCN)C(N)=O)C(C)C)C(C)C)C(C)C)C(C)C)C(C)C)C(C)C)C(C)C)C(C)C [04-015-N001]
cytotoxicity [1]: ≥ 75% | average tumor volume at day 22, 20 μg dosing group (SW620 tumor): significant reduction in average tumor volume | average tumor volume at day 22, 200 μg dosing group (SW620 tumor): significant reduction in average tumor volume | reduction in tumor growth (comparison between pept-ins) (SW620 tumor; intratumoral injection, 20 μg and 200 μg): strongest reduction in tumor growth

Molecule: Ac-KLSVFAIKGSKLSVFAIK-NH2 [04-004-N001]
cytotoxicity [1]: ≥ 75% | efficacy on MEFs expressing KRAS G12V [2]: notable increased efficacy | average tumor volume at day 22, 20 μg dosing group (SW620 tumor): only significant for the 200 μg dosing group | average tumor volume at day 22, 200 μg dosing group (SW620 tumor): significant

Molecule: Ac-KLVVVGAVKGSKLVVVGAVK-NH2 [04-014-N001]
cytotoxicity [1]: ≥ 75% | activity in the spheroid setting [3]: did not display activity

Molecule: Ac-KVVVGAVGVGKGSKVVVGAVGVGK-NH2 [04-033-N001]
cytotoxicity [1]: ≥ 75%

Molecule: Ac-KVVVGAVKGSKVVVGAVK-NH2 [04-006-N001]
cytotoxicity [1]: ≥ 75%
